Assay results as given in patent publication US20150086490A1, “ORAL CARE COMPOSITIONS AND METHODS” (Colgate-Palmolive Company, priority 2009, published 2015).

System: MMP-13 gene expression
Assay: PTH stimulated MMP-13 gene expression in UMR 106-01 cells, real time quantitative RT-PCR
Assay type: cell-based, rat
Conditions: for effect on PTH stimulated MMP-13 gene expression (in words): summary of the table's results
Protocol: Parathyroid hormone (PTH) stimulates the transcription of MMP-13. The experimental method utilizes PTH to stimulate MMP-13 transcription in UMR 106-01 cells, which are cells derived from a rat osteoblastic cell line. The UMR 106-01 cell line provides useful model system for studying effects of PTH on osteoblasts in vitro. See, e.g., Qin, L. et al. Journal of Biological Chemistry, 278(22), 19723 (2003).
The UMR 106-01 cells were cultured in Eagle's minimal essential medium (EMEM) supplemented with 25 mM Hepes 7.4, 1% nonessential amino acids, 100 units/ml penicillin, 100 μg/ml streptomycin and 5% fetal bovine serum.
UMR 106-01 cells were seeded in 12-well plates and cultured for 2-3 days in cell culture media. When cells were confluent, the cell culture media was changed to 1% fetal bovine serum (not 5% fetal bovine sertn) for overnight cell starvation. The cells were preincubated with active ingredient for 15 min and then incubated with PTH (10^−8 M) for 4 hours.
Total RNA from UMR 106-01 cells stimulated with or without PTH was isolated with TRIzol reagent. Total RNA (0.1 μg) was reverse-transcribed to cDNA with the Invitrogen Superscript kit according to the manufacturer's instructions. PCR was performed on cDNA using primers, and the sequences used are listed below. All were amplified by adding 2.5 μl of cDNA to the PCR mixture (22.5 μl) containing each primer (0.2 μM) and 12.5 μl of the Platinum SYBR Green qPCR SuperMix UDG (Invitrogen). The reactions were pre-incubated at 50° C. for 2 minutes for decontamination of dU-containing DNA by UDG, then at 95° C. for 2 minutes to inactivate UDG and activate Taq. The PCR program continued for 49 cycles of denaturation at 95° C. for 15 seconds, annealing and elongation of the primers at 60° C. for 30 seconds. Relative quantification of gene expression was determined by using the 2-delta delta CT method where fold changes in gene expression are relative to control samples. All samples were normalized to β-actin.

[1] = PTH (10^−8 M, 4 hours) + active 10 ppm (15 min preincubation)
[2] = active alone (no PTH), 10 ppm in simple solution

SMILES | fold change in MMP-13 gene expression relative to the control sample, Average (PTH (10^−8 M, 4 hours) + active 7 ppm (15 min preincubation)) | fold change in MMP-13 gene expression relative to the control sample, Average (active alone (no PTH), 7 ppm in simple solution) | effect on PTH stimulated MMP-13 gene expression (in words) | fold change in MMP-13 gene expression relative to the control sample, Average (PTH (10^−8 M, 4 hours) + active 0.1 ppm (15 min preincubation)) | fold change in MMP-13 gene expression relative to the control sample, Average (PTH (10^−8 M, 4 hours) + active 1 ppm (15 min preincubation)) | fold change in MMP-13 gene expression relative to the control sample, Average [1] | fold change in MMP-13 gene expression relative to the control sample, Average (PTH (10^−8 M, 4 hours) + active 50 ppm (15 min preincubation)) | fold change in MMP-13 gene expression relative to the control sample, Average (PTH (10^−8 M, 4 hours) + active 100 ppm (15 min preincubation)) | fold change in MMP-13 gene expression relative to the control sample, Average (active alone (no PTH), 0.1 ppm in simple solution) | fold change in MMP-13 gene expression relative to the control sample, Average (active alone (no PTH), 1 ppm in simple solution) | fold change in MMP-13 gene expression relative to the control sample, Average [2] | fold change in MMP-13 gene expression relative to the control sample, Average (active alone (no PTH), 50 ppm in simple solution) | fold change in MMP-13 gene expression relative to the control sample, Average (active alone (no PTH), 100 ppm in simple solution)
CC1CCC(C(C)C)C(OC(=O)Nc2ccccc2O)C1 (centres unmarked) [Compound A, 2-isopropyl-5-methylcyclohexyl 2-hydroxyphenylcarbantate] | 14.674 fold | 7.41 fold | decreases the expression | – | – | – | – | – | – | – | – | – | –
Oc1ccc(C=Cc2cc(O)cc(O)c2)cc1 [Resveratrol, 3,5,4′-trihydroxystilbene] | – | – | decreases the expression | 46.02 fold | 19.97 fold | 1.86 fold | 0.91 fold | 0.65 fold | 1.07 fold | 0.71 fold | 0.65 fold | 0.38 fold | 1.09 fold
CC(=O)O[C@@H]1CC[C@@]2(C)[C@@H](CC[C@]3(C)[C@@H]2C(=O)C=C2[C@@H]4[C@@H](C)[C@H](C)CC[C@]4(C)CC[C@]23C)[C@@]1(C)C(=O)O [AKBBA, Acetyl keto β-boswellic acid] | – | – | decreases the expression | – | – | 59.77 fold | – | – | – | – | 1.45 fold | – | –
CC(=O)Nc1ccc(OC(=O)OC2CC(C)CCC2C(C)C)cc1 (centres unmarked) [Compound B, 4-acetamidophenyl 2-isopropyl-5-methylcyclohexyl carbonate] | – | – | decreases the expression | – | – | 49.86 fold | – | – | – | – | 5.78 fold | – | –
